Measured values: patent US20060013866A1, “Transdermal drug delivery formulations with optimal amounts of vasodilators therein” (priority 2004, published 2006)

Experiments:
Type in all cases: in vivo
[1] = Topical ibuprofen vehicle with tocopherol nicotinate applied to rabbits, ibuprofen in plasma over three hours
Experimental: (§1) Test formulations containing 15% ibuprofen-sodium salt, 5% oleic acid, 10% menthol, 5% propylene glycol, 10% dimethylacetamide, 1% decylmethylsulfoxide, 1% u-care, varying amounts of tocopherol nicotinate in the range of 0-1%, and 52-53% deionized water were each blended in a beaker with a mechanical mixer and heated to 40° C. for 30 minutes until clear, then cooled to room temperature.
(§2) 150 mg of sodium salt-ibuprofen was formulated with a 1-gram dose of the above lipid-based vehicle formulations containing the increasing amounts of the vasodilator tocopherol nicotinate. The Ibuprofen vehicle was topically applied to rabbits and blood samples were taken over a three-hour period. Plasma was prepared and analyzed for the amount of ibuprofen present in the blood. The data represents the integrated value of ibuprofen concentration in the blood for the three hour time period for each concentration of tocopherol nicotinate.

[2] = Topical ibuprofen vehicle with papaverine applied to rabbits, ibuprofen in plasma over three hours; settings: 150 mg sodium salt-ibuprofen
Experimental: as §1, with “papaverine ranging from” for “tocopherol nicotinate in the range of”
as §2, with “with” for “with a 1-gram dose of”, “formulatiosn” for “formulations”, “containing” for “containing the”, “papaverine.” for “tocopherol nicotinate.”

[3] = Topical ibuprofen vehicle with tolazoline applied to rabbits, ibuprofen in plasma over three hours; settings: 150 mg sodium salt-ibuprofen
Experimental: as §1, with “ibuprofen- sodium” for “ibuprofen-sodium”, “tolazoline ranging from 0-0.1%,” for “tocopherol nicotinate in the range of 0-1%,”, “52.9-53%” for “52-53%”
as §2, with “with” for “with a 1-gram dose of”, “formulatiosn” for “formulations”, “containing” for “containing the”, “tolazoline.” for “tocopherol nicotinate.”

[4] = Maximal blood flow stimulated by vasodilator, laser Doppler perfusion imager
Source text: The present invention also relates to the methods needed to obtain the optimal transdermal delivery of drugs as a function of enhanced delivery resulting from the presence of vasodilator chemicals relates to the topical application of therapeutic or diagnostic agents for the systemic or localized distribution of therapeutic or diagnostic agents for the purpose of treating or detecting diseases and medical conditions. The topically applied agents may be administered at different locations on the human body to achieve access to the circulatory system. The inclusion of chemical vasodilator facilitates the transportation of the therapeutic and diagnostic agents. Chemical vasodilators act through a mechanism-specific basis resulting in a stimulation or inhibition of the uptake of the therapeutic or diagnostic agents. […] Transdermal delivery of the drug molecule as a function of the vasodilator is evaluated in a living suitable animal model or human test subject, topically applying the test formulations, which contain varying amounts of vasodilator. […] Effective transdermal drug delivery is measured by determining the amount of drug present in the blood plasma as a function of time following the single application. […]
Maximal blood flow stimulated by the vasodilator tolazoline was measured using a laser Doppler perfusion imager.

SMILES: CC(C)Cc1ccc(C(C)C(=O)O)cc1 (centres unmarked) [Ibuprofen, ibuprofen]
- integrated value of ibuprofen concentration in the blood (0-3 hr) ([1]; 150 mg sodium salt-ibuprofen in 1-gram dose, Control (no tocopherol nicotinate)): 1.03 µg·h/mL
- integrated value of ibuprofen concentration in the blood (0-3 hr) ([1]; 150 mg sodium salt-ibuprofen, tocopherol nicotinate 0.00010%): 3.98 µg·h/mL
- integrated value of ibuprofen concentration in the blood (0-3 hr) ([1]; 150 mg sodium salt-ibuprofen, tocopherol nicotinate 0.00025%): 9.48 µg·h/mL
- integrated value of ibuprofen concentration in the blood (0-3 hr) ([1]; 150 mg sodium salt-ibuprofen, tocopherol nicotinate 0.00050%): 3.12 µg·h/mL
- integrated value of ibuprofen concentration in the blood (0-3 hr) ([1]; 150 mg sodium salt-ibuprofen, tocopherol nicotinate 0.0010%): 5.08 µg·h/mL
- integrated value of ibuprofen concentration in the blood (0-3 hr) ([1]; 150 mg sodium salt-ibuprofen, tocopherol nicotinate 0.0100%): 5.84 µg·h/mL
- integrated value of ibuprofen concentration in the blood (0-3 hr) ([1]; 150 mg sodium salt-ibuprofen, tocopherol nicotinate 0.100%): 4.30 µg·h/mL
- integrated value of ibuprofen concentration in the blood (0-3 hr) ([1]; 150 mg sodium salt-ibuprofen, tocopherol nicotinate 1.000%): 4.40 µg·h/mL
- integrated value of ibuprofen concentration in the blood (0-3 hr) ([2]; Control (no papaverine)): 1.03 µg·h/mL
- integrated value of ibuprofen concentration in the blood (0-3 hr) ([2]; papaverine 0.00010%): 5.12 µg·h/mL
- integrated value of ibuprofen concentration in the blood (0-3 hr) ([2]; papaverine 0.00025%): 4.47 µg·h/mL
- integrated value of ibuprofen concentration in the blood (0-3 hr) ([2]; papaverine 0.00050%): 8.37 µg·h/mL
- integrated value of ibuprofen concentration in the blood (0-3 hr) ([2]; papaverine 0.0010%): 7.62 µg·h/mL
- integrated value of ibuprofen concentration in the blood (0-3 hr) ([2]; papaverine 0.0100%): 5.72 µg·h/mL
- integrated value of ibuprofen concentration in the blood (0-3 hr) ([2]; papaverine 0.100%): 4.23 µg·h/mL
- integrated value of ibuprofen concentration in the blood (0-3 hr) ([2]; papaverine 1.000%): 6.16 µg·h/mL
- integrated value of ibuprofen concentration in the blood (0-3 hr) ([3]; Control (no tolazoline)): 1.03 µg·h/mL
- integrated value of ibuprofen concentration in the blood (0-3 hr) ([3]; tolazoline 0.0010%): 3.90 µg·h/mL
- integrated value of ibuprofen concentration in the blood (0-3 hr) ([3]; tolazoline 0.0050%): 5.24 µg·h/mL
- integrated value of ibuprofen concentration in the blood (0-3 hr) ([3]; tolazoline 0.0100%): 5.66 µg·h/mL
- integrated value of ibuprofen concentration in the blood (0-3 hr) ([3]; tolazoline 0.0500%): 3.53 µg·h/mL
- integrated value of ibuprofen concentration in the blood (0-3 hr) ([3]; tolazoline 0.100%): 4.53 µg·h/mL

SMILES: c1ccc(CC2=NCCN2)cc1 [tolazoline]
- concentration of tolazoline at which the maximum blood flow was achieved [4]: 0.5%
